Literature values in US20220265689A1, “HIV PRE-EXPOSURE PROPHYLAXIS” (THE UNITED STATES OF AMERICA ,AS REPRESENTED BY THE …, priority 2019, published 2022).

Test system: HIV-1
Settings: HIV-1 T cells, activated PBMCs, macrophages

Q: For `CC(C)OC(=O)[C@H](C)N[P@](=O)(CO[C@H](C)Cn1cnc2c(N)ncnc21)Oc1ccccc1` [TAF, tenofovir alafenamide], which “enhanced anti-HIV activity relative to tenofovir” value is on record?
A: 500- to 10300 fold
